IC50 data for 23 molecules are collected here from US10124004B2, “Pyrido[3,4-d]pyrimidine derivative and pharmaceutically acceptable salt thereof” (Teijin Pharma Limited, priority 2015, dated 2018).

Holding throughout (format): biochemical
The target in one assay is CDK6/cyclin D3 (Homo sapiens, UniProt Q00534). Nature of the assay: Human CDK6/cyclin D3 inhibitory activity (off-chip mobility shift assay). The settings on record: 50% inhibitory concentration against CDK6/cyclin D3; 300 μM ATP, room temperature, five hours; read-out: CDK6 Activity Symbol. As to the method:
Human CDK6/Cyclin D3 Inhibitory Activity
CDK6/cyclin D3 inhibitory activity was determined by the off-chip mobility shift assay (MSA). The MSA separates proteins from one another on the basis of a difference in electrophoretic mobility depending on the molecular weight or electric charge of the proteins. The kinase activity is determined by quantifying the degree of phosphorylation through electrophoretic analysis of a positive to negative change in electric charge of the substrate phosphorylated by the kinase.
Each solution was prepared with an assay buffer containing 20 mM HEPES (pH 7.5), 0.01% Triton X-100, and 2 mM dithiothreitol. A test compound solution was prepared by dilution of the test compound with dimethyl sulfoxide (DMSO) to a concentration 100 times higher than the final concentration and then 25-fold dilution with the assay buffer to a concentration four times higher than the final concentration. An ATP/substrate/metal solution was prepared to have a concentration four times higher than the final concentration. An enzyme solution was prepared to have a concentration twice higher than the final concentration. The final enzyme concentration was adjusted to an appropriate level on the basis of the enzyme activity signal and the inhibitory activity of a positive control compound.
The test compound solution (5 μL/well) and the ATP/substrate/metal solution (5 μL/well) were added to a 384-well plate, and the enzyme solution or the assay buffer (10 μL/well) was added to the plate (total amount of the reaction mixture: 20 μL/well) for initiation of enzymatic reaction. […] The reaction was performed at room temperature for five hours, and a termination buffer (QuickScout Screening Assist MSA, manufactured by Carna Biosciences, Inc.) (60 μL/well) was then added to the plate for termination of the reaction. Subsequently, the substrate peptide and the phosphorylated peptide in the reaction mixture were separated from each other and quantified with LabChip 3000 (manufactured by Caliper Lifesciences). The kinase reaction was evaluated by the product ratio (P/(P+S)) calculated from the peak height (S) of the substrate peptide and the peak height (P) of the phosphorylated peptide.
The percent inhibition of enzyme activity was calculated for each test compound (note: enzyme activity=100% in the case of addition of the enzyme solution and addition of DMSO instead of the test compound solution, whereas enzyme activity=0% in the case of addition of the assay buffer instead of the enzyme solution and addition of DMSO instead of the test compound solution). The percent inhibition of enzyme activity was fitted to a dose-response curve, to determine a 50% inhibitory concentration against CDK6/cyclin D3.
In each table, “+++” corresponds to IC50<10 nM, “++” 10 nM≤IC50<100 nM, and “+” 100 nM≤IC50.

The target in the next assay is T1, CDK4/cyclin D3 (Homo sapiens, UniProt P11802).
T1 construct: purchased Carna Biosciences, Inc. QS S Assist CDK4/Cyclin D3_FP Kit
T1 sequence (P11802 whole entry): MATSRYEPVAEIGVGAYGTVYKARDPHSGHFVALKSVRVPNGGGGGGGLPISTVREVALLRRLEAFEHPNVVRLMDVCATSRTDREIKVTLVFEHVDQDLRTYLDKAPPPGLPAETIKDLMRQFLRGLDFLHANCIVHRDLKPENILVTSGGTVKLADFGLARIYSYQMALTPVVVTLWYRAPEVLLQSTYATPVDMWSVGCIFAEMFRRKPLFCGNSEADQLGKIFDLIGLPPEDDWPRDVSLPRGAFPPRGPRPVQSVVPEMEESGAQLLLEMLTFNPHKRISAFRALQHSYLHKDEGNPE
T1 sequence (P30281 whole entry partner): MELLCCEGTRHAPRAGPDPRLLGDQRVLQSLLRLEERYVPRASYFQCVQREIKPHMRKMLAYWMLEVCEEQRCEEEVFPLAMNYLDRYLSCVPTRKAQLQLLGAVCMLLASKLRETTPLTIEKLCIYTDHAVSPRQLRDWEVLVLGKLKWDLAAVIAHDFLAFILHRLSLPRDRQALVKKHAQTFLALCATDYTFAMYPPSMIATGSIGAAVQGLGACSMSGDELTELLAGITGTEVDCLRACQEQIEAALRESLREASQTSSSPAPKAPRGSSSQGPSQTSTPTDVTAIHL
Nature of the assay: Human CDK4/cyclin D3 inhibitory activity (QS S Assist CDK4/Cyclin D3_FP Kit, IMAP fluorescence polarization). The method, boiled down: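 Percent inhibition, relative to DMSO with and without enzyme, was curve-fitted to give IC50 from polarization (ex 485, em 535 nm). The 45-min room-temperature reaction used 12.5-25 ng/well enzyme, kit ATP/substrate/metal mix, and HEPES pH 7.4 buffer with Tween20 and DTT, followed by 30-min IMAP binding in the dark.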
For orientation: In fluorescence polarisation assays a small probe gives low polarisation when free and higher when bound to something large.

For a further assay, the target named is T2, CDK2/cyclin A2 (Homo sapiens, UniProt P24941).
T2 construct: purchased Carna Biosciences, Inc. QS S Assist CDK2/Cyclin A2_FP Kit
Nature of the assay: Human CDK2/cyclin A2 inhibitory activity (QS S Assist CDK2/Cyclin A2_FP Kit, IMAP fluorescence polarization). A digest of the protocol:
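Kinase activity read as fluorescence polarization (485/535 nm) after phosphorylated fluorescent substrate binds IMAP reagent (30 min, RT, dark). Enzyme (2.5 ng/well) reacted 60 min at RT with ATP/substrate/metal in HEPES pH 7.4 buffer with Tween 20 and DTT; no-enzyme wells define 0% activity; IC50 by curve fit.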

The mark [1] stands for this setting: 50% inhibitory concentration against CDK4/cyclin D3, given as class symbol.
The mark [2] stands for this setting: 50% inhibitory concentration against CDK2/cyclin A2, given as class symbol.
Setting [3] is: Human CDK4/cyclin D3 inhibitory activity, read-out: CDK4 Activity symbol.
[4] abbreviates: Human CDK2/cyclin A2 inhibitory activity, read-out: CDK2 Activity symbol.

Where two headings read alike, the source gives them in different places.

Sequence of CDK6/cyclin D3 (Q00534 whole entry): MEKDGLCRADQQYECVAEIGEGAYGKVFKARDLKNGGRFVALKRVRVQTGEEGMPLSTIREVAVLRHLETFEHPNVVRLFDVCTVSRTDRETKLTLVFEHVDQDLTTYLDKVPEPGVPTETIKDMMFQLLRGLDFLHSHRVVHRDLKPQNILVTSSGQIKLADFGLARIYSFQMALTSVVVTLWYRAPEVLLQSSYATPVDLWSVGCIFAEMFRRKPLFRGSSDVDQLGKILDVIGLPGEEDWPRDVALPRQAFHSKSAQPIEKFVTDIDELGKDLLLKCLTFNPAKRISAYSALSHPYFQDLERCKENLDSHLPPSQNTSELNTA
Sequence of CDK6/cyclin D3 (P30281 whole entry partner): as the sequence (P30281 whole entry partner) above

Take `c1cc(N2CCNCC2)nnc1Nc1ncc2cc(C3CCOC3)nc(N[C@H]3CCCOC3)c2n1` (single isomer, unassigned) [Compound 938]: the IC50 at CDK6/cyclin D3 is 10 to 100 nM; at CDK4/cyclin D3 (setting [1]), below 10 nM; at CDK2/cyclin A2 (setting [2]), at least 100 nM.
For the molecule `c1cc(Nc2ncc3cc(C4CCOC4)nc(N[C@H]4CCCOC4)c3n2)ncc1CN1CCNCC1` (single isomer, unassigned) [Compound 941], the figures for the IC50 at CDK6/cyclin D3, against CDK4/cyclin D3 (setting [1]) and at CDK2/cyclin A2 (setting [2]) were below 10 nM, below 10 nM and at least 100 nM, respectively.
On to `CC(C)Nc1nc([C@@H](C)O)cc2cnc(Nc3ccc(N4CCNCC4)cn3)nc12` [Compound 16], for which the results for the IC50 on CDK6/cyclin D3, at CDK4/cyclin D3 (setting [3]) and at CDK2/cyclin A2 (setting [4]) were below 10 nM, below 10 nM and at least 100 nM, respectively.
On to `CO[C@H](C)c1cc2cnc(Nc3ccc(N4CCNCC4)nn3)nc2c(NC(C)C)n1` [Compound 217, (R)—N8-isopropyl-6-(1-methoxyethyl)-N2-(6-(piperazin-1-yl)pyridazin-3-yl)pyrido[3,4-d]pyrimidine-2,8-diamine], for which the IC50 on CDK6/cyclin D3 is 10 to 100 nM; on CDK4/cyclin D3 (setting [3]) it was below 10 nM; at CDK2/cyclin A2 (setting [4]) it was at least 100 nM.
`CO[C@H](C)c1cc2cnc(Nc3ccc(CN4CCNCC4)cn3)nc2c(NC(C)C)n1` [Compound 220]: the IC50 on CDK6/cyclin D3 is 10 to 100 nM; on CDK4/cyclin D3 (setting [3]), below 10 nM; on CDK2/cyclin A2 (setting [4]) it was at least 100 nM.
Consider `COCC(C)(C)Nc1nc([C@@H](C)O)cc2cnc(Nc3ccc(CN4CCNCC4)cn3)nc12` [Compound 221], for which the IC50 on CDK6/cyclin D3 was 10 to 100 nM; on CDK4/cyclin D3 (setting [3]) it was below 10 nM; at CDK2/cyclin A2 (setting [4]), at least 100 nM.
The matching figures for `CC(C)Nc1nc([C@@H](C)O)cc2cnc(Nc3ccc(N4CCNCC4=O)cn3)nc12` [Compound 230]: below 10 nM, below 10 nM and at least 100 nM.
In the case of `CO[C@H](C)c1cc2cnc(Nc3ccc(CN4CCNCC4)cn3)nc2c(N[C@H]2CCCOC2)n1` [Compound 300], the IC50 on CDK6/cyclin D3 is 10 to 100 nM; on CDK4/cyclin D3 (setting [3]), below 10 nM; at CDK2/cyclin A2 (setting [4]), at least 100 nM.
For the molecule `CO[C@H](C)c1cc2cnc(Nc3ccc(N4CCNCC4)nn3)nc2c(N[C@H]2CCCOC2)n1` [Compound 304], the IC50 at CDK6/cyclin D3 is 10 to 100 nM; at CDK4/cyclin D3 (setting [3]), below 10 nM; at CDK2/cyclin A2 (setting [4]), at least 100 nM.
For `CO[C@H](C)c1cc2cnc(Nc3cnc(N4CCNCC4)cn3)nc2c(NC(C)C)n1` [Compound 363], the IC50 at CDK6/cyclin D3 is 10 to 100 nM; at CDK4/cyclin D3 (setting [3]) it was below 10 nM; on CDK2/cyclin A2 (setting [4]), at least 100 nM.
On to `Cc1nc(Nc2ncc3cc([C@@H](C)O)nc(NC(C)C)c3n2)ccc1N1CCNCC1=O` [Compound 749], for which the IC50 at CDK6/cyclin D3 is 10 to 100 nM; against CDK4/cyclin D3 (setting [1]), below 10 nM; on CDK2/cyclin A2 (setting [2]) it was at least 100 nM.
For `C[C@@H](O)c1cc2cnc(Nc3ccc4c(n3)CCNC4)nc2c(N[C@H]2CCCOC2)n1` [Compound 778], the IC50 on CDK6/cyclin D3 was 10 to 100 nM; at CDK4/cyclin D3 (setting [1]), below 10 nM; at CDK2/cyclin A2 (setting [2]), at least 100 nM.
Take `CC(C)Nc1nc(C2(C)COC2)cc2cnc(Nc3ccc(N4CCNCC4=O)cn3)nc12` [Compound 779]: the IC50 on CDK6/cyclin D3 is below 10 nM; against CDK4/cyclin D3 (setting [1]) it was below 10 nM; against CDK2/cyclin A2 (setting [2]) it was at least 100 nM.
For `CCCNc1nc([C@@H](C)OC)cc2cnc(Nc3ccc(CN4CCNCC4)cn3)nc12` [Compound 818], the figures for the IC50 on CDK6/cyclin D3, against CDK4/cyclin D3 (setting [1]) and against CDK2/cyclin A2 (setting [2]) were 10 to 100 nM, below 10 nM and at least 100 nM, respectively.
For the molecule `CCCNc1nc([C@@H](C)OC)cc2cnc(Nc3ccc(N4CCNCC4)nn3)nc12` [Compound 819], the IC50 at CDK6/cyclin D3 was 10 to 100 nM; against CDK4/cyclin D3 (setting [1]), below 10 nM; on CDK2/cyclin A2 (setting [2]), at least 100 nM.
On to `CCNc1nc([C@@H](C)O)cc2cnc(Nc3ccc(CN4CCN(CCO)CC4)cn3)nc12` [Compound 843], for which the results for the IC50 on CDK6/cyclin D3, on CDK4/cyclin D3 (setting [1]) and against CDK2/cyclin A2 (setting [2]) were 10 to 100 nM, below 10 nM and at least 100 nM, respectively.
Regarding `CCCNc1nc([C@@H](C)O)cc2cnc(Nc3ccc(CN4CCN(CCO)CC4)cn3)nc12` [Compound 844], the IC50 is below 10 nM on CDK6/cyclin D3, below 10 nM against CDK4/cyclin D3 (setting [1]) and at least 100 nM at CDK2/cyclin A2 (setting [2]).
For the molecule `CC(C)Nc1nc(C2(C)COC2)cc2cnc(Nc3ccc(N4CCNCC4)nn3)nc12` [Compound 879], the values for the IC50 at CDK6/cyclin D3, against CDK4/cyclin D3 (setting [1]) and on CDK2/cyclin A2 (setting [2]) were below 10 nM, below 10 nM and at least 100 nM, respectively.
Take `CC(C)Nc1nc(C2(C)COC2)cc2cnc(Nc3ccc(CN4CCNCC4)cn3)nc12` [Compound 883]: the IC50 on CDK6/cyclin D3 is below 10 nM; against CDK4/cyclin D3 (setting [1]), below 10 nM; at CDK2/cyclin A2 (setting [2]), at least 100 nM.
Consider `CC(C)N(C)c1nc([C@@H](C)O)cc2cnc(Nc3ccc(N4CCNCCC4=O)cn3)nc12` [Compound 904], for which the IC50 at CDK6/cyclin D3 was below 10 nM; at CDK4/cyclin D3 (setting [1]), below 10 nM; at CDK2/cyclin A2 (setting [2]), at least 100 nM.
Regarding `CC(C)Nc1nc([C@@H](C)O)cc2cnc(Nc3ccc4c(n3)CCN(CCO)C4)nc12` [Compound 929], the IC50 on CDK6/cyclin D3 was below 10 nM; at CDK4/cyclin D3 (setting [1]) it was below 10 nM; on CDK2/cyclin A2 (setting [2]), at least 100 nM.
`CC(C)Nc1nc([C@@H](C)O)cc2cnc(Nc3ccc4c(n3)CCN(CCN(C)C)C4)nc12` [Compound 954]: the values for the IC50 at CDK6/cyclin D3, at CDK4/cyclin D3 (setting [1]) and at CDK2/cyclin A2 (setting [2]) were below 10 nM, below 10 nM and at least 100 nM, respectively.
Regarding `CCC(O)c1cc2cnc(Nc3ccc(N4CCNCC4=O)cn3)nc2c(NC(C)C)n1` (stereo not drawn) [Compound 1036], the IC50 is 10 to 100 nM on CDK6/cyclin D3, below 10 nM against CDK4/cyclin D3 (setting [1]) and at least 100 nM against CDK2/cyclin A2 (setting [2]).
